Target: T1, kynurenine-3-hydroxylase (Rattus norvegicus, UniProt O88867)
T1 construct: Rat liver mitochondrial extract was used as enzymatic preparation for this assay; from tissue; host or cells: rat liver mitochondrial extract
Experiment: Kynurenine-3-hydroxylase assay in rat liver (radiometric, release of tritiated water, mitochondrial extract)
Type: biochemical
Settings: 37°C, 30 min, 0.025 mM L-kynurenine, read-out: KYN-3-OH inhibition (IC50) Liver
Experimental: Kynurenine-3-hydroxylase assay in rat liver
The assay for kynurenine 3-hydroxylase was based on enzymatic synthesis of tritiated water during hydroxylation reaction. Radiolabelled water was quantified following selective adsorption of the isotopic substrate and its metabolites with active charcoal.
Rat liver mitochondrial extract was used as enzymatic preparation for this assay.
The assay for kynurenine 3-hydroxylase activity was carried out at 37°C for a time of 30 min. The reaction mixture of a total volume of […] was constituted of 44 mg of suspended extract, 100 mM Tris/Cl buffer pH 8.1, 10 mM EDTA, 100mM KCl, 0.8 mM NADPH, 0.025 mM L-kynurenine, 0.5 mCi L-(3,5-^3H)Kynurenine (10 Ci/mmol) and […] of different concentration of inhibitor solutions. After the incubation the reaction was terminated by the addition of 1 mL of 7.5% (w/v) activated charcoal, vortexed and centrifugated for 7 min.
A […] of supernatant was counted by scintillation spectroscopy in 5 ml of liquid scintillation.

T1 sequence (O88867 whole entry): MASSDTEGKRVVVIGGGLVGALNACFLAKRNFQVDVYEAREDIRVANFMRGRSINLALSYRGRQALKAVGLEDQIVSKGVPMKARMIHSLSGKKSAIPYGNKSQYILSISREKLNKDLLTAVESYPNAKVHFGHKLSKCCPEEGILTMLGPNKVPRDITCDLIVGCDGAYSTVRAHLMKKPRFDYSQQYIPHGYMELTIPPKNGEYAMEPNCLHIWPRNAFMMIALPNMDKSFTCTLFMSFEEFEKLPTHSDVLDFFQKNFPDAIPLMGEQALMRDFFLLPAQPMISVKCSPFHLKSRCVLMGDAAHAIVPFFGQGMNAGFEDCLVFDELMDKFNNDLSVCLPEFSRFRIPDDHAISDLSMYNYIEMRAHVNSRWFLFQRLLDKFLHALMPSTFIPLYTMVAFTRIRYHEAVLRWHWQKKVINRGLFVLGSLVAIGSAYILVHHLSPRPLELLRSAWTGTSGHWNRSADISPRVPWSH

Row | Compound | IC50
1 | Cc1c[nH]c2c1c(C(=O)O)nc1ccc(Cl)cc12 [FCE 29370, 8-chloro-3-methyl-1H-pyrrolo[3,2-c] quinoline-4-carboxylic acid] | 61 µM
2 | O=C(O)c1nc2cc(Cl)ccc2c2[nH]cc(-c3ccccc3)c12 [FCE 29464, 7-chloro-3-phenyl-1H-pyrrolo[3,2-c] quinoline-4-carboxylic acid] | 34 µM
